From ChEMBL document CHEMBL5236645, “Novel imidazo[1,5-a]quinoxaline derivatives: SAR, selectivity and modeling challenges en route to the identification of an α5-GABAA receptor NAM” (Bioorg Med Chem Lett, 2023)

Legend:
[1] = biological target: T1, Gamma-aminobutyric acid receptor subunit alpha-1 (Homo sapiens, UniProt P14867); assay: Displacement of flumazenil from alpha1 GABAA receptor (unknown origin)
T1 sequence (P14867 whole entry): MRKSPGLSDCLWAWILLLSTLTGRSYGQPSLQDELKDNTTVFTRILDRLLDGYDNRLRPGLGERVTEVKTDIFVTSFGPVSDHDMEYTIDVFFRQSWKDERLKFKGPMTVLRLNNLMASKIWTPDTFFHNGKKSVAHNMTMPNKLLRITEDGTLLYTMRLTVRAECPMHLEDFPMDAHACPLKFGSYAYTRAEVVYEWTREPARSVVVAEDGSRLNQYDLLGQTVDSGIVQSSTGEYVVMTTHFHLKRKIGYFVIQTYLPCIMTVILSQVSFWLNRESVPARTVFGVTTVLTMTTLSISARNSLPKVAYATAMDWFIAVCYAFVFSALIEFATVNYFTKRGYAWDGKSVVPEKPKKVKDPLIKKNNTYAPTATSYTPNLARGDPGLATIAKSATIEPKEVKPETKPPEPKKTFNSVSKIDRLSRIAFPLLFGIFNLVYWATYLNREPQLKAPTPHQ

[2] = biological target: T2, Gamma-aminobutyric acid receptor subunit alpha-5 (Homo sapiens, UniProt P31644); assay: Displacement of flumazenil from alpha5 GABAA receptor (unknown origin)
T2 sequence (P31644 whole entry): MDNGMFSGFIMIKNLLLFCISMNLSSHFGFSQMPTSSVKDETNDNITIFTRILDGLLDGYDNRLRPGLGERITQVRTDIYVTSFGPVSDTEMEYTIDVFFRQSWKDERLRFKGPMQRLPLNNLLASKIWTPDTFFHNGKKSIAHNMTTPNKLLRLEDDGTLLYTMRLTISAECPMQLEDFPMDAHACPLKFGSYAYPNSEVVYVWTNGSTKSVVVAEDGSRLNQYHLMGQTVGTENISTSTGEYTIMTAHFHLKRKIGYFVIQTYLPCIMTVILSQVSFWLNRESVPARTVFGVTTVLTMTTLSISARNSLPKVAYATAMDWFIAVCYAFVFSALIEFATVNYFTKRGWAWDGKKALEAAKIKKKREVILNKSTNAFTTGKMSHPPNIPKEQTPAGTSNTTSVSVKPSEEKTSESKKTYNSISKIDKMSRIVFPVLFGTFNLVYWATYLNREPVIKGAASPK

[3] = biological target: T3, Gamma-aminobutyric acid receptor subunit alpha-5 (Homo sapiens) (UniProt P31644); assay: Displacement of flumazenil from alpha5 GABAA receptor (unknown origin) at 1 uM relative to control
T3 sequence (whole entry): T2 sequence (P31644 whole entry)

[4] = biological target: T3, Gamma-aminobutyric acid receptor subunit alpha-5 (Homo sapiens); assay: Displacement of flumazenil from alpha5 GABAA receptor (unknown origin) at 10 uM relative to control; conditions: filed as modulator
[5] = biological target: T1, Gamma-aminobutyric acid receptor subunit alpha-1; assay: Negative allosteric modulation of alpha1 GABAA (unknown origin)
[6] = biological target: T2, Gamma-aminobutyric acid receptor subunit alpha-5; assay: Negative allosteric modulation of alpha5 GABAA (unknown origin)

Row | Ki [1] [nM] | Ki [2] [nM] | Structure (SMILES) | other results
1 | 32 | 56 | Cc1cc(Cn2c(=O)c3cncn3c3ccccc32)no1 | 
2 | 35 | 16 | Cc1ccc(Cn2c(=O)c3cncn3c3ccccc32)cn1 | 
3 |  | 840 | O=c1c2cncn2c2cc(Cl)ccc2n1Cc1cccnc1 | 
4 | 52 | 132 | O=c1c2cncn2c2ccccc2n1Cc1ccccn1 | 
5 | 30 | 15 | O=c1c2cncn2c2ccccc2n1Cc1cncnc1 | 
6 | 60 | 17 | Cc1cncc(Cn2c(=O)c3cncn3c3ccccc32)c1 | 
7 | 123 | 64 | Cn1cc(Cn2c(=O)c3cncn3c3ccccc32)cn1 | 
8 |  | 244 | COc1ccc(Cn2c(=O)c3cncn3c3ccccc32)cc1 | 
9 | 76 | 89 | O=c1c2cncn2c2ccc(Br)cc2n1Cc1cccnc1 | 
10 | 32 | 28 | O=c1c2cncn2c2ccccc2n1Cc1cccnc1 | 
11 | 55 | 33 | O=c1c2cncn2c2ccccc2n1Cc1cnccn1 | 
12 | 3.6 | 1.7 | Cc1ncc(Cn2c(=O)c3cncn3c3ccccc32)cn1 | 
13 | 60 | 17 | Cc1ccncc1Cn1c(=O)c2cncn2c2ccccc21 | 
14 | 15 | 11 | O=c1c2cncn2c2ccc(Cl)cc2n1Cc1cccnc1 | 
15 |  | 107 | Cc1ncccc1Cn1c(=O)c2cncn2c2ccccc21 | 

More lines, now with the values behind:

Row | Structure (SMILES) | Ki [1] [nM] | Ki [2] [nM] | other results
16 | O=c1c2c(CC3CC3)ncn2c2ccccc2n1Cc1ccccn1 | 23 | 80 | 
17 | N#Cc1ccc(Cn2c(=O)c3cncn3c3ccccc32)cn1 |  |  | Activity ([3]; filed as modulator): 61%
18 | O=c1[nH]c2ccccc2n2cncc12 |  |  | Activity [4]: 53%
19 | O=c1c2cncn2c2c(Cl)cccc2n1Cc1cccnc1 | 2150 | 295 | 
20 | COc1cc(Cl)c2c(c1)n(Cc1cccnc1)c(=O)c1cncn12 | 670 | 142 | 
21 | O=c1c2cncn2c2ccccc2n1Cc1ccccc1 |  |  | Activity ([3]; filed as modulator): 61%
22 | Cc1noc(C)c1Cn1c(=O)c2c(C)ncn2c2ccccc21 |  |  | Activity ([3]; filed as modulator): 65%
23 | N#Cc1cccc2c1n1cncc1c(=O)n2Cc1cccnc1 |  |  | Activity [3]: 0%
24 | O=c1c2cncn2c2c(Cl)cc(Cl)cc2n1Cc1cccnc1 | 420 | 138 | 
25 | O=c1c2cncn2c2ccccc2n1CCc1ccccn1 |  |  | Activity [3]: 29%
26 | Cc1cc(Cc2ncn3c2c(=O)n(Cc2ccccn2)c2ccccc23)no1 |  | 379 | 
27 | O=C(c1ccc(Cn2c(=O)c3cncn3c3ccccc32)cn1)N1CCOCC1 |  |  | Activity [3]: 38%
28 | Cc1onc(-c2ccc(F)cc2)c1COc1ccc(C(=O)N2CCS(=O)(=O)CC2)cn1 [BASMISANIL] |  |  | Ki [5]: 1210 nM; Ki [6]: 4.4 nM
29 | COc1cc(Cl)c2c(c1)n(Cc1cnccc1C)c(=O)c1cncn12 | 2100 | 687 | 
30 | CCOC(=O)c1ncn2c1c(=O)n(Cc1cccnc1)c1ccccc12 | 0.4 | 0.3 | 
31 | CCn1c(=O)c2cncn2c2ccccc21 |  | 1380 | 
32 | Cn1c(=O)c2cncn2c2ccccc21 |  | 2190 | 
33 | O=c1c2cncn2c2ccccc2n1Cc1ccncc1 |  |  | Activity ([3]; filed as modulator): 62%

Row | Structure (SMILES) | Ki [1] [nM] | Ki [2] [nM] | other results
34 | O=c1c2c(Cl)ncn2c2ccccc2n1Cc1ccccn1 | 5.4 | 12 | 
35 | CCc1ncn2c1c(=O)n(Cc1ccccn1)c1ccccc12 |  | 360 | 
36 | CN1C(=O)COc2cc(Cn3c(=O)c4cncn4c4ccccc43)ccc21 | 74 | 48 | 
37 | COc1ccc2c(c1)n(Cc1cccnc1)c(=O)c1cncn12 | 120 | 20 | 
38 | Cc1cccc2c1n1cncc1c(=O)n2Cc1cccnc1 | 600 | 86 | 
39 | O=c1c2cncn2c2cc(OC(F)(F)F)ccc2n1Cc1cccnc1 |  |  | Activity ([3]; filed as modulator): 42%
40 | O=c1c2c(CO)ncn2c2ccccc2n1Cc1cccnc1 | 100 | 52 | 
41 | O=c1c2cncn2c2cccnc2n1Cc1cccnc1 |  | 122 | 
42 | COc1ccc2c(c1)n1cncc1c(=O)n2Cc1cccnc1 |  |  | Activity [3]: 18%
43 | Cc1cc(-c2nnc3c4ccccc4c(OCc4ccccn4)nn23)no1 |  |  | Ki [5]: 0.4 nM; Ki [6]: 0.5 nM
44 | Cc1ncn2c1c(=O)n(Cc1ccccn1)c1ccccc12 | 16 | 65 | 
45 | CC(C)(C)c1ccc2c(c1)n(Cc1cccnc1)c(=O)c1cncn12 | 310 | 210 | 
46 | O=c1c2cncn2c2ccccc2n1-c1ccccn1 |  |  | Activity [3]: 7%
47 | O=c1c2cncn2c2cc(F)c(F)cc2n1Cc1cccnc1 |  |  | Activity ([3]; filed as modulator): 57%
48 | CCOC(=O)c1ncn2c1c(=O)n(Cc1cccnc1)c1cccc(Cl)c12 | 7 | 2 | 
49 | Cc1ncn2c1c(=O)n(Cc1cccnc1)c1ccccc12 | 8 | 18 | 
50 | Cc1cc(Cn2c(=O)c3c(C)ncn3c3ccccc32)no1 |  | 30 | 
